Test results taken from US10335409B2 (priority 2012, dated 2019).
Like-named read-outs stand apart in the source and are kept apart here.

How the values were obtained:
Format in all cases: cell-based, hepatitis C virus
[1] = tested on: genotype 1b (Con1) wild type transient HCV replicon in Huh-7-derived cells; experiment: Transient-transfected HCV replicon EC50, genotype 1b wild type; conditions: Hepatitis C virus, 72 h, read-out: EC50 1B WT
[2] = tested on: genotype 4a (ED43) stable HCV replicon in Huh-7-derived cells; experiment: Stable subgenomic HCV replicon EC50, genotype 4a (Renilla luciferase); conditions: Hepatitis C virus, 72 h, read-out: EC50 4A RLUC
Description: (§1) Antiviral potency (EC50) was determined in both stable subgenomic HCV replicon cell lines and transient-transfected HCV replicon cells. The term half maximal effective concentration (EC50) refers to the concentration of a drug which induces a response halfway between the baseline and maximum after the exposure time specified below.
(§2) Stable subgenomic HCV replicons for genotype 1a, 1b, 2a, 3a, and 4a were established in Huh-7-derived cells as described by Lohmann et al (Lohmann V, Korner F, Koch J, et al Replication of subgenomic hepatitis C virus RNAs in a hepatoma cell line. Science 1999; 285:119-3) Each stable cell line contains a bicistronic HCV replicon that encodes a humanized Renilla luciferase (hRLuc) reporter gene fused to a selectable neomycin-resistance gene, followed by an EMCV IRES and the NS3-NS5B coding region of HCV. […] Luciferase activity was measured as a marker for intracellular HCV replication levels.
(§3) The genotype 1a stable replicon was derived from the H77 HCV strain and contained adaptive mutations P1496L and S2204I. The genotype 1b stable replicon was derived from the Con1 HCV strain and contained adaptive mutations E1202G, T1280I and K1846T. […] The genotype 3a stable replicon was derived from the S52 HCV strain and contained adaptive mutations P1121L, A1198T and S2210I (equivalent to S2204I in genotype 1). The genotype 4a stable replicon was derived from the ED43 HCV strain and contained adaptive mutations Q1691R and S2204I. All replicon cell lines were propagated in Huh-7-derived cells and maintained in Dulbecco's modified Eagle's Medium (DMEM) supplemented with 10% fetal bovine serum (FBS) and 0.5 mg/mL G418.
(§4) To perform EC50 assays, cells from each HCV replicon were dispensed into 384-well plates. Compounds were dissolved in DMSO at a concentration of 10 mM and diluted in DMSO using an automated pipetting instrument. Three-fold serially diluted compounds were directly added to the cells using an automated instrument. […] Seventy-two hours later, cells were lysed and Renilla luciferase activity were quantified as recommended by the manufacturer (Promega-Madison, Wis.). Non-linear regression was performed to calculate EC50 values.

[3] = tested on: genotype 2a (JFH-1) stable HCV replicon in Huh-7-derived cells; experiment: Stable subgenomic HCV replicon EC50, genotype 2a (Renilla luciferase); conditions: Hepatitis C virus, stable replicon genotype 2a, 72 h, read-out: EC50 2A RLUC
Description: as §1, §2, §3, §4

[4] = tested on: genotype 3a (S52) wild type transient HCV replicon in Huh-7-derived cells; experiment: Transient-transfected HCV replicon EC50, genotype 3a wild type; conditions: Hepatitis C virus, 72 h, read-out: EC50 3A WT
[5] = tested on: genotype 1a (H77) stable HCV replicon in Huh-7-derived cells; experiment: Stable subgenomic HCV replicon EC50, genotype 1a (Renilla luciferase); conditions: Hepatitis C virus, stable replicon genotype 1a, 72 h, read-out: EC50 1A RLUC
Description: as §1, §2, §3, §4

[6] = tested on: genotype 3a (S52) stable HCV replicon in Huh-7-derived cells; experiment: Stable subgenomic HCV replicon EC50, genotype 3a (Renilla luciferase); conditions: Hepatitis C virus, 72 h, read-out: EC50 3A RLUC
Description: as §1, §2, §3, §4

[7] = tested on: genotype 1b (Con1) stable HCV replicon in Huh-7-derived cells; experiment: Stable subgenomic HCV replicon EC50, genotype 1b (Renilla luciferase); conditions: Hepatitis C virus, stable replicon genotype 1b, 72 h, read-out: EC50 1B RLUC
Description: as §1, §2, §3, §4

[8] = tested on: genotype 1b NS3/4a protease inhibitor resistant variant D168A transient HCV replicon in Huh-7-derived cells; experiment: Transient-transfected HCV replicon EC50, genotype 1b D168A; conditions: Hepatitis C virus, 72 h, read-out: EC50 1B D168A, transient-transfected replicon genotype 1b D168A resistant variant, 72 h
[9] = tested on: genotype 1a (H77) wild type transient HCV replicon in Huh-7-derived cells; experiment: Transient-transfected HCV replicon EC50, genotype 1a wild type; conditions: Hepatitis C virus, 72 h, read-out: EC50 1A WT
[10] = tested on: genotype 1a NS3/4a protease inhibitor resistant variant R155K transient HCV replicon in Huh-7-derived cells; experiment: Transient-transfected HCV replicon EC50, genotype 1a R155K; conditions: Hepatitis C virus, 72 h, read-out: EC50 1A R155K, transient-transfected replicon genotype 1a R155K resistant variant, 72 h
[11] = transient-transfected replicon genotype 1b wild type
[12] = transient-transfected replicon genotype 3a wild type
[13] = transient-transfected replicon genotype 1a wild type

SMILES | EC50 [1, 11] | EC50 [2] | EC50 [3] | EC50 [4, 12] | EC50 [5] | EC50 [6] | EC50 [7] | EC50 [8] | EC50 [9, 13] | EC50 [10] | EC50 [1] | EC50 [4] | EC50 [9] | EC50 ([1]; GETYPE1B, transient-transfected replicon genotype 1b wild type) | EC50 ([8]; GETYPE1B) | EC50 ([9]; GETYPE1A, transient-transfected replicon genotype 1a wild type) | EC50 ([10]; GETYPE1A)
CC[C@@H]1[C@@H]2CN(C(=O)[C@H](C(C)(C)C)NC(=O)O[C@@H]3C[C@H]3CCCCC(F)(F)c3nc4ccccc4nc3O2)[C@@H]1C(=O)N[C@]1(C(=O)NS(=O)(=O)C2CC2)C[C@H]1CC [Example 54, (1aR,5S,8S,9S,10R,22aR)-5-tert-butyl-N-{(1R,2R)-1-[(cyclopropylsulfonyl)carbamoyl]-2-ethylcyclopropyl}-9-ethyl-18,18-difluoro-3,6-dioxo-1,1a,3,4,5,6,9,10,18,19,20,21,22,22a-tetradecahydro-8H-7,10-methanocyclopropa[18,19][1,10,3,6]dioxadiazacyclononadecino[11,12-b]quinoxaline-8-carboxamide] | 10 nM | 13 nM | 76 nM | 147 nM | 33 nM | 260 nM | 18 nM | 123 nM | 19 nM | 27 nM |  |  |  |  |  |  | 
COc1ccc2nc3c(nc2c1)O[C@H]1CN(C(=O)[C@H](C(C)(C)C)NC(=O)O[C@@H]2C[C@@H]4C[C@@H]4[C@H]2CCCCC3)[C@H](C(=O)N[C@]2(C(=O)NS(=O)(=O)C3(C)CC3)C[C@H]2CC(F)F)[C@@H]1C [Example 58, (1aS,2aR,6S,9S,10S,11R,23aR,23bS)-6-tert-butyl-N-[(1R,2S)-2-(2,2-difluoroethyl)-1-{[(1-methylcyclopropyl)sulfonyl]carbamoyl}cyclopropyl]-15-methoxy-10-methyl-4,7-dioxo-1a,2,2a,4,5,6,7,10,11,19,20,21,22,23,23a,23b-hexadecahydro-1H,9H-8,11-methanocyclopropa[4′,5′]cyclopenta[1′,2′:18,19][1,10,3,6]dioxadiazacyclononadecino[11,12-b]quinoxaline-9-carboxamide] |  | 12 nM | 12 nM |  | 12 nM | 134 nM | 9.7 nM | 23 nM |  | 18 nM | 14 nM | 38 nM | 12 nM |  |  |  | 
CC[C@@H]1[C@@H]2CN(C(=O)[C@H](C(C)(C)C)NC(=O)O[C@]3(C)CCC[C@H]3CCCCCc3nc4ccc(OC)cc4nc3O2)[C@@H]1C(=O)N[C@]1(C(=O)NS(=O)(=O)C2CC2)C[C@H]1CC [Example 51] |  | 30 nM | 103 nM | 265 nM | 40 nM | 1220 nM | 39 nM |  |  |  |  |  |  | 24 nM | 318 nM | 28 nM | 92 nM
COc1ccc2nc3c(nc2c1)O[C@H]1CN(C(=O)[C@H](C(C)(C)C)NC(=O)O[C@@H]2C[C@@H]4C[C@@H]4[C@H]2CCCCC3)[C@H](C(=O)N[C@]2(C(=O)NS(=O)(=O)C3(C)CC3)C[C@H]2C(F)F)[C@@H]1C [Example 49, (1aS,2aR,6S,9S,10S,11R,23aR,23bS)-6-tert-butyl-N-[(1R,2R)-2-(difluoromethyl)-1-{[(1-methylcyclopropyl)sulfonyl]carbamoyl}cyclopropyl]-15-methoxy-10-methyl-4,7-dioxo-1a,2,2a,4,5,6,7,10,11,19,20,21,22,23,23a,23b-hexadecahydro-1H,9H-8,11-methanocyclopropa[4′,5′]cyclopenta[1′,2′:18,19][1,10,3,6]dioxadiazacyclononadecino[11,12-b]quinoxaline-9-carboxamide] |  | 3.5 nM | 5.2 nM |  | 3.7 nM | 20 nM | 4.1 nM | 4.2 nM |  | 3.8 nM | 2.8 nM | 6.3 nM | 3.5 nM |  |  |  | 
COc1ccc2nc3c(nc2c1)O[C@H]1CN(C(=O)[C@H](C(C)(C)C)NC(=O)O[C@@H]2C[C@H]2CCCCC3)[C@H](C(=O)N[C@]2(C(=O)NS(=O)(=O)C3(C)CC3)C[C@H]2C(F)F)[C@@H]1CC#N [Example 50, (1aR,5S,8S,9S,10R,22aR)-5-tert-butyl-9-(cyanomethyl)-N-[(1R,2R)-2-(difluoromethyl)-1-{[(1-methylcyclopropyl)sulfonyl]carbamoyl}cyclopropyl]-14-methoxy-3,6-dioxo-1,1a,3,4,5,6,9,10,18,19,20,21,22,22a-tetradecahydro-8H-7,10-methanocyclopropa[18,19][1,10,3,6]dioxadiazacyclononadecino[11,12-b]quinoxaline-8-carboxamide] | 4440 nM | 4440 nM | 379 nM | 26800 nM | 4440 nM | 19700 nM | 4440 nM | 4440 nM | 4440 nM | 3830 nM |  |  |  |  |  |  | 
CC[C@@H]1[C@@H]2CN(C(=O)[C@H](C(C)(C)C)NC(=O)O[C@@H]3C[C@@H]4C[C@@H]4[C@H]3CCCCC(F)(F)c3nc4ccc(OC)cc4nc3O2)[C@@H]1C(=O)N[C@]1(C(=O)NS(=O)(=O)C2(C)CC2)C[C@H]1C(F)F [Example 61, (1aS,2aR,6S,9S,10S,11R,23aR,23bS)-6-tert-butyl-N-[(1R,2R)-2-(difluoromethyl)-1-{[(1-methylcyclopropyl)sulfonyl]carbamoyl}cyclopropyl]-10-ethyl-19,19-difluoro-15-methoxy-4,7-dioxo-1a,2,2a,4,5,6,7,10,11,19,20,21,22,23,23a,23b-hexadecahydro-1H,9H-8,11-methanocyclopropa[4′,5′]cyclopenta[1′,2′:18,19][1,10,3,6]dioxadiazacyclononadecino[11,12-b]quinoxaline-9-carboxamide] | 9.3 nM | 11 nM | 8.7 nM | 13 nM | 13 nM | 28 nM | 10 nM | 6.7 nM | 12 nM | 10 nM |  |  |  |  |  |  | 
C[C@@H]1[C@@H]2CN(C(=O)[C@H](C(C)(C)C)NC(=O)O[C@@H]3C[C@@H]4C[C@@H]4[C@H]3CC/C=C/Cn3c(nc4cc(Cl)ccc4c3=O)O2)[C@@H]1C(=O)N[C@]1(C(=O)NS(=O)(=O)C2(C)CC2)C[C@H]1C(F)F [Example 96, (1aS,2aR,6S,9S,10S,11R,21E,24aR,24bS)-6-tert-butyl-15-chloro-N-[(1R,2R)-2-(difluoromethyl)-1-{[(1-methylcyclopropyl)sulfonyl]carbamoyl}cyclopropyl]-10-methyl-4,7,18-trioxo-1a,2,2a,4,5,6,7,10,11,20,23,24,24a,24b-tetradecahydro-1H,9H,18H-8,11-methanocyclopropa[4′,5′]cyclopenta[1′,2′:18,19][1,10,3,6,12]dioxatriazacyclononadecino[11,12-b]quinazoline-9-carboxamide] | 4.1 nM | 8.9 nM | 5.4 nM | 12 nM | 12 nM | 77 nM | 11 nM | 3.6 nM | 5.2 nM | 3.8 nM |  |  |  |  |  |  | 
